According to the supplement of paper PMC10627819:

Assays:
Test in all cases: Bliss interaction score (quartile over a dose matrix) (fitness difference); higher = more antagonism (negative = synergy)
B. subtilis 168 = tested on: B. subtilis 168
How it was run: (§1)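 Fitness is OD595 at stationary-phase entry relative to the plate's robust no-drug mean, capped at 1. Single-drug fitness was inferred from combinations. The Bliss score is observed minus product-expected fitness, summarised by quartiles over technical, biological and donor/recipient replicates.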

S. aureus DSM 20231 = tested on: S. aureus DSM 20231
How it was run: as §1

S. aureus Newman = tested on: S. aureus Newman
How it was run: as §1

S. pneumoniae D39V = tested on: S. pneumoniae D39V
How it was run: as §1
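Further: first quartile when negative (synergy) and third quartile when positive (antagonism).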

SMILES	Bliss interaction score (B. subtilis 168; main component drawn)	Bliss interaction score (S. aureus DSM 20231; main component drawn)	Bliss interaction score (S. aureus Newman; main component drawn)	Bliss interaction score (S. pneumoniae D39V; main component drawn)	Bliss interaction score (B. subtilis 168)	Bliss interaction score (S. aureus DSM 20231)	Bliss interaction score (S. aureus Newman)	Bliss interaction score (S. pneumoniae D39V)
CC[C@H]1OC(=O)[C@H](C)[C@@H](O[C@H]2C[C@@](C)(OC)[C@@H](O)[C@H](C)O2)[C@H](C)[C@@H](O[C@@H]2O[C@H](C)C[C@H](N(C)C)[C@H]2O)[C@](C)(O)C[C@@H](C)C(=O)[C@H](C)[C@@H](O)[C@]1(C)O [Erythromycin] + CCCCCCCCCC(=O)N[C@@H]1[C@H]([C@@H]([C@H](O[C@H]1OC2=C3C=C4C=C2OC5=C(C=C(C=C5)[C@H]([C@H]6C(=O)N[C@@H](C7=C(C(=CC(=C7)O)OC8[C@H]([C@H]([C@@H]([C@H](O8)CO)O)O)O)C9=C(C=CC(=C9)[C@H](C(=O)N6)NC(=O)[C@@H]4NC(=O)[C@@H]1C2=CC(=CC(=C2)OC2=C(C=CC(=C2)[C@H](C(=O)N[C@H](CC2=CC(=C(O3)C=C2)Cl)C(=O)N1)N)O)O)O)C(=O)O)O[C@H]1[C@@H]([C@H]([C@@H]([C@H](O1)CO)O)O)NC(=O)C)Cl)CO)O)O [Teicoplanin]	-0.046	0.0621	0.154	0.0581	–	–	–	–
CC[C@H]1OC(=O)[C@H](C)[C@@H](O[C@H]2C[C@@](C)(OC)[C@@H](O)[C@H](C)O2)[C@H](C)[C@@H](O[C@@H]2O[C@H](C)C[C@H](N(C)C)[C@H]2O)[C@](C)(O)C[C@@H](C)C(=O)[C@H](C)[C@@H](O)[C@]1(C)O [Erythromycin] + CCC[C@@H]1C[C@@H](C(=O)N[C@@H]([C@H]2O[C@H](SC)[C@H](O)[C@@H](O)[C@H]2O)[C@@H](C)O)N(C)C1 [Lincomycin]	–	–	–	–	0.107	-0.0609	-0.1	0.0856
CC[C@H]1OC(=O)[C@H](C)[C@@H](O[C@H]2C[C@@](C)(OC)[C@@H](O)[C@H](C)O2)[C@H](C)[C@@H](O[C@@H]2O[C@H](C)C[C@H](N(C)C)[C@H]2O)[C@](C)(O)C[C@@H](C)C(=O)[C@H](C)[C@@H](O)[C@]1(C)O [Erythromycin] + CCN(CC)CCOC(=O)c1ccc(N)cc1 [Procaine]	–	–	–	–	-0.0671	-0.0573	0.0663	-0.048
CC[C@H]1OC(=O)[C@H](C)[C@@H](O[C@H]2C[C@@](C)(OC)[C@@H](O)[C@H](C)O2)[C@H](C)[C@@H](O[C@@H]2O[C@H](C)C[C@H](N(C)C)[C@H]2O)[C@](C)(O)C[C@@H](C)C(=O)[C@H](C)[C@@H](O)[C@]1(C)O [Erythromycin] + CC[C@H]1OC(=O)[C@H](C)C(=O)[C@H](C)[C@@H](O[C@@H]2O[C@H](C)C[C@H](N(C)C)[C@H]2O)[C@](C)(OC)C[C@@H](C)C(=O)[C@H](C)[C@H]2N(CCCCn3cnc(-c4cccnc4)c3)C(=O)O[C@]12C [Telithromycin]	–	–	–	–	-0.0361	-0.0237	-0.0283	0.0262
CC[C@H]1OC(=O)[C@H](C)[C@@H](O[C@H]2C[C@@](C)(OC)[C@@H](O)[C@H](C)O2)[C@H](C)[C@@H](O[C@@H]2O[C@H](C)C[C@H](N(C)C)[C@H]2O)[C@](C)(O)C[C@@H](C)C(=O)[C@H](C)[C@@H](O)[C@]1(C)O [Erythromycin] + CN1C2=CC=CC=C2N=C3C1=CC=CC3=O [Pyocyanin]	–	–	–	–	0.0449	-0.0317	-0.051	-0.0454
CC[C@H]1OC(=O)[C@H](C)[C@@H](O[C@H]2C[C@@](C)(OC)[C@@H](O)[C@H](C)O2)[C@H](C)[C@@H](O[C@@H]2O[C@H](C)C[C@H](N(C)C)[C@H]2O)[C@](C)(O)C[C@@H](C)C(=O)[C@H](C)[C@@H](O)[C@]1(C)O [Erythromycin] + CN(C)C(=O)C(CCN1CCC(O)(c2ccc(Cl)cc2)CC1)(c1ccccc1)c1ccccc1 [Loperamide]	–	–	–	–	0.0381	0.0888	-0.039	0.116
CC[C@H]1OC(=O)[C@H](C)[C@@H](O[C@H]2C[C@@](C)(OC)[C@@H](O)[C@H](C)O2)[C@H](C)[C@@H](O[C@@H]2O[C@H](C)C[C@H](N(C)C)[C@H]2O)[C@](C)(O)C[C@@H](C)C(=O)[C@H](C)[C@@H](O)[C@]1(C)O [Erythromycin] + CN(C)c1cc(NC(=O)CNC(C)(C)C)c(O)c2c1C[C@H]1C[C@H]3[C@H](N(C)C)C(O)=C(C(N)=O)C(=O)[C@@]3(O)C(O)=C1C2=O [Tigecycline]	–	–	–	–	-0.0505	-0.0257	-0.0253	-0.0975
CC[C@H]1OC(=O)[C@H](C)[C@@H](O[C@H]2C[C@@](C)(OC)[C@@H](O)[C@H](C)O2)[C@H](C)[C@@H](O[C@@H]2O[C@H](C)C[C@H](N(C)C)[C@H]2O)[C@](C)(O)C[C@@H](C)C(=O)[C@H](C)[C@@H](O)[C@]1(C)O [Erythromycin] + CN(N=O)C(=O)N[C@@H](C=O)[C@@H](O)[C@H](O)[C@H](O)CO [Streptozotocin]	–	–	–	–	-0.0271	-0.0271	-0.0533	-0.0459
CC[C@H]1OC(=O)[C@H](C)[C@@H](O[C@H]2C[C@@](C)(OC)[C@@H](O)[C@H](C)O2)[C@H](C)[C@@H](O[C@@H]2O[C@H](C)C[C@H](N(C)C)[C@H]2O)[C@](C)(O)C[C@@H](C)C(=O)[C@H](C)[C@@H](O)[C@]1(C)O [Erythromycin] + CN[C@@H]1[C@H](O)[C@H](NC)[C@H]2O[C@@]3(O)C(=O)C[C@@H](C)O[C@H]3O[C@@H]2[C@H]1O [Spectinomycin]	–	–	–	–	-0.093	-0.0696	-0.172	-0.0547
CC[C@H]1OC(=O)[C@H](C)[C@@H](O[C@H]2C[C@@](C)(OC)[C@@H](O)[C@H](C)O2)[C@H](C)[C@@H](O[C@@H]2O[C@H](C)C[C@H](N(C)C)[C@H]2O)[C@](C)(O)C[C@@H](C)C(=O)[C@H](C)[C@@H](O)[C@]1(C)O [Erythromycin] + CN[C@@H]1[C@H](O[C@H]2[C@H](O[C@H]3[C@H](O)[C@@H](O)[C@H](N=C(N)N)[C@@H](O)[C@@H]3N=C(N)N)O[C@@H](C)[C@]2(O)C=O)O[C@@H](CO)[C@H](O)[C@H]1O [Streptomycin]	–	–	–	–	0.0844	0.0256	-0.0695	-0.0481
CC[C@H]1OC(=O)[C@H](C)[C@@H](O[C@H]2C[C@@](C)(OC)[C@@H](O)[C@H](C)O2)[C@H](C)[C@@H](O[C@@H]2O[C@H](C)C[C@H](N(C)C)[C@H]2O)[C@](C)(O)C[C@@H](C)C(=O)[C@H](C)[C@@H](O)[C@]1(C)O [Erythromycin] + CN[C@H](CC(C)C)C(=O)N[C@H]1C(=O)N[C@@H](CC(N)=O)C(=O)N[C@H]2C(=O)N[C@H]3C(=O)N[C@H](C(=O)N[C@H](C(=O)O)c4cc(O)cc(O)c4-c4cc3ccc4O)[C@H](O)c3ccc(c(Cl)c3)Oc3cc2cc(c3O[C@@H]2O[C@H](CO)[C@@H](O)[C@H](O)[C@H]2O[C@H]2C[C@](C)(N)[C@H](O)[C@H](C)O2)Oc2ccc(cc2Cl)[C@H]1O [Vancomycin]	–	–	–	–	0.035	0.0298	-0.0375	0.0403
CC[C@H]1OC(=O)[C@H](C)[C@@H](O[C@H]2C[C@@](C)(OC)[C@@H](O)[C@H](C)O2)[C@H](C)[C@@H](O[C@@H]2O[C@H](C)C[C@H](N(C)C)[C@H]2O)[C@](C)(O)C[C@@H](C)C(=O)[C@H](C)[C@@H](O)[C@]1(C)O [Erythromycin] + CN[C@H](CC(C)C)C(=O)N[C@H]1C(=O)N[C@@H](CC(N)=O)C(=O)N[C@H]2C(=O)N[C@H]3C(=O)N[C@H](C(=O)N[C@H](C(=O)O)c4cc(O)cc(O)c4-c4cc3ccc4O)[C@H](O[C@H]3C[C@](C)(N)[C@@H](O)[C@H](C)O3)c3ccc(c(Cl)c3)Oc3cc2cc(c3O[C@@H]2O[C@H](CO)[C@@H](O)[C@H](O)[C@H]2O[C@H]2C[C@](C)(NCc3ccc(-c4ccc(Cl)cc4)cc3)[C@@H](O)[C@H](C)O2)Oc2ccc(cc2Cl)[C@H]1O [Oritavancin]	–	–	–	–	0.0299	-0.023	0.0605	0.046
CC[C@H]1OC(=O)[C@H](C)[C@@H](O[C@H]2C[C@@](C)(OC)[C@@H](O)[C@H](C)O2)[C@H](C)[C@@H](O[C@@H]2O[C@H](C)C[C@H](N(C)C)[C@H]2O)[C@](C)(O)C[C@@H](C)C(=O)[C@H](C)[C@@H](O)[C@]1(C)O [Erythromycin] + CO[C@@H]1[C@@H](OC(N)=O)[C@@H](O)[C@H](Oc2ccc3c(O)c(NC(=O)c4ccc(O)c(CC=C(C)C)c4)c(=O)oc3c2C)OC1(C)C [Novobiocin]	–	–	–	–	-0.0636	-0.0443	0.0699	-0.114
CC[C@H]1OC(=O)[C@H](C)[C@@H](O[C@H]2C[C@@](C)(OC)[C@@H](O)[C@H](C)O2)[C@H](C)[C@@H](O[C@@H]2O[C@H](C)C[C@H](N(C)C)[C@H]2O)[C@](C)(O)C[C@@H](C)C(=O)[C@H](C)[C@@H](O)[C@]1(C)O [Erythromycin] + CO[C@@]12[C@H](COC(N)=O)C3=C(C(=O)C(C)=C(N)C3=O)N1C[C@@H]1N[C@@H]12 [MitomycinC]	–	–	–	–	0.0799	-0.048	0.0538	-0.0897
CC[C@H]1OC(=O)[C@H](C)[C@@H](O[C@H]2C[C@@](C)(OC)[C@@H](O)[C@H](C)O2)[C@H](C)[C@@H](O[C@@H]2O[C@H](C)C[C@H](N(C)C)[C@H]2O)[C@](C)(O)C[C@@H](C)C(=O)[C@H](C)[C@@H](O)[C@]1(C)O [Erythromycin] + CO[C@H]1/C=C/O[C@@]2(C)Oc3c(C)c(O)c4c(O)c(c(/C=N/N5CCN(C)CC5)c(O)c4c3C2=O)NC(=O)/C(C)=C\C=C\[C@H](C)[C@H](O)[C@@H](C)[C@@H](O)[C@@H](C)[C@H](OC(C)=O)[C@@H]1C [Rifampicin]	–	–	–	–	0.116	0.0363	0.0582	0.0763
CC[C@H]1OC(=O)[C@H](C)[C@@H](O[C@H]2C[C@@](C)(OC)[C@@H](O)[C@H](C)O2)[C@H](C)[C@@H](O[C@@H]2O[C@H](C)C[C@H](N(C)C)[C@H]2O)[C@](C)(O)C[C@@H](C)C(=O)[C@H](C)[C@@H](O)[C@]1(C)O [Erythromycin] + COc1c(N2C[C@@H]3CCCN[C@@H]3C2)c(F)cc2c(=O)c(C(=O)O)cn(C3CC3)c12 [Moxifloxacin]	–	–	–	–	0.0269	0.0532	0.0486	0.101
CC[C@H]1OC(=O)[C@H](C)[C@@H](O[C@H]2C[C@@](C)(OC)[C@@H](O)[C@H](C)O2)[C@H](C)[C@@H](O[C@@H]2O[C@H](C)C[C@H](N(C)C)[C@H]2O)[C@](C)(O)C[C@@H](C)C(=O)[C@H](C)[C@@H](O)[C@]1(C)O [Erythromycin] + COc1cc(Cc2cnc(N)nc2N)cc(OC)c1OC [Trimethoprim]	–	–	–	–	-0.155	0.0179	0.0715	-0.0464
CC[C@H]1OC(=O)[C@H](C)[C@@H](O[C@H]2C[C@@](C)(OC)[C@@H](O)[C@H](C)O2)[C@H](C)[C@@H](O[C@@H]2O[C@H](C)C[C@H](N(C)C)[C@H]2O)[C@](C)(O)C[C@@H](C)C(=O)[C@H](C)[C@@H](O)[C@]1(C)O [Erythromycin] + COc1ccc(C[C@H](N)C(=O)N[C@H]2[C@@H](O)[C@H](n3cnc4c(N(C)C)ncnc43)O[C@@H]2CO)cc1 [Puromycin]	–	–	–	–	-0.0531	-0.0389	-0.0378	-0.0449
CC[C@H]1OC(=O)[C@H](C)[C@@H](O[C@H]2C[C@@](C)(OC)[C@@H](O)[C@H](C)O2)[C@H](C)[C@@H](O[C@@H]2O[C@H](C)C[C@H](N(C)C)[C@H]2O)[C@](C)(O)C[C@@H](C)C(=O)[C@H](C)[C@@H](O)[C@]1(C)O [Erythromycin] + C[C@@H]1O[C@@H]1P(=O)(O)O [Fosfomycin]	–	–	–	–	0.116	-0.0365	-0.073	0.0627
